Where two headings read alike, the source gives them in different places.
Columns and labels:
human CA II [1] = target: T1, human CA II (Homo sapiens, UniProt P00918); set-up: made in house; method as in PMID 22077347; details: read-out: inhibition of hCAII; cited from earlier work
human CA I [2] = target: T2, human CA I (Homo sapiens, UniProt P00915); set-up: made in house; method as in PMID 22077347; details: read-out: inhibition of hCAI; cited from earlier work
[3] = test system: SW1573 (non-small cell lung); assay: antiproliferative assay (NCI protocol), SW1573; assay type: cell-based, human; details: antiproliferative activity
Procedure: (§1) The antiproliferative assays were conducted following the protocol of the US National Cancer Institute (NCI), with minor modifications.
(§2) The coumarin-benzoxazole hybrids were also tested as antiproliferative agents against a panel of six human solid tumour cell lines (Table 2): A549 (non-small cell lung), HBL-100 (breast), HeLa (cervix), SW1573 (non-small cell lung) as examples of drug-sensitive lines, and T-47D (breast) and WiDr (colon) as multidrug-resistant lines. A non-tumour cell line (BJ-hTert, human fibroblasts) was also used for analysing the selectivity. Chemotherapeutic agents 5-fluorouracyl (5-FU) and cisplatin (CDDP) were included in the study as drug references.

human CA XII = human CA XII (Homo sapiens, UniProt O43570); assay: stopped-flow CO2 hydrase assay, CA XII; details: for Selectivity ratio I/XII: ratio of Ki CA I / CA XII; for Selectivity ratio II/XII: ratio of Ki CA II / CA XII
Sequence of human CA XII (O43570 25-354): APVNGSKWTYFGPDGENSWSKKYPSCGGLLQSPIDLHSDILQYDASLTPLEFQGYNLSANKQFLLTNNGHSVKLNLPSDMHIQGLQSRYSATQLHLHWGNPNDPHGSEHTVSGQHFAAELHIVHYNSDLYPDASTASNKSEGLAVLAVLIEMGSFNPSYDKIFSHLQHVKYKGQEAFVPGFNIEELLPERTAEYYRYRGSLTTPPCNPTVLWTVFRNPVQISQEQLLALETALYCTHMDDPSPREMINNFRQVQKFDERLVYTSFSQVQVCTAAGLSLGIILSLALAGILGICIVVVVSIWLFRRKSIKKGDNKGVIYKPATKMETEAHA
Excerpt: (§3) A stopped-flow CO2 hydrase assay has been employed as reported earlier[10–12].

[4] = test system: A549 (non-small cell lung); assay: antiproliferative assay (NCI protocol), A549; assay type: cell-based, human; details: antiproliferative activity
Procedure: as §1, §2

human CA IV = human CA IV (Homo sapiens, UniProt P22748); assay: stopped-flow CO2 hydrase assay, CA IV
Sequence of human CA IV (P22748 19-312): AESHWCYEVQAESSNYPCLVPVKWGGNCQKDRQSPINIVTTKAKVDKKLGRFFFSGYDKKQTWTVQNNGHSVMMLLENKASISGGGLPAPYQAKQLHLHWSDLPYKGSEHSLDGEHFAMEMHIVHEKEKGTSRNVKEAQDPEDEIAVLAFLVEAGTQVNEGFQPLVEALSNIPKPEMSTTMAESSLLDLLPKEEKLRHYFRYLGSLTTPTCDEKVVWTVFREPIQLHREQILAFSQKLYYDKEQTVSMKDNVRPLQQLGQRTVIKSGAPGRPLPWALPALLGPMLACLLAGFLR
Excerpt: as §3

T-47D (breast) = assay: antiproliferative assay (NCI protocol), T-47D; assay type: cell-based, human; details: antiproliferative activity, multidrug-resistant line
Procedure: as §1, §2

human CA IX = human CA IX (Homo sapiens, UniProt Q16790); assay: stopped-flow CO2 hydrase assay, CA IX; details: for Selectivity ratio I/IX: ratio of Ki CA I / CA IX; for Selectivity ratio II/IX: ratio of Ki CA II / CA IX; for decreased activity against CA IX compared to non-substituted counterpart 8b: versus 8b
Excerpt: as §3

human CA I [5] = target: T2, human CA I; assay: stopped-flow CO2 hydrase assay, CA I
Excerpt: as §3

WiDr (colon) = assay: antiproliferative assay (NCI protocol), WiDr; assay type: cell-based, human; details: antiproliferative activity, multidrug-resistant line
Procedure: as §1, §2

[6] = test system: BJ-hTert, human fibroblasts; assay: antiproliferative assay (NCI protocol), non-tumour BJ-hTert; assay type: cell-based; details: for activity against the non-tumour cell line (in words): BJ-hTert; for GI50: non-tumour cell line, human fibroblasts
Procedure: as §1, §2

human CA VII = human CA VII (Homo sapiens, UniProt P43166); assay: stopped-flow CO2 hydrase assay, CA VII
Sequence of human CA VII (P43166 whole entry): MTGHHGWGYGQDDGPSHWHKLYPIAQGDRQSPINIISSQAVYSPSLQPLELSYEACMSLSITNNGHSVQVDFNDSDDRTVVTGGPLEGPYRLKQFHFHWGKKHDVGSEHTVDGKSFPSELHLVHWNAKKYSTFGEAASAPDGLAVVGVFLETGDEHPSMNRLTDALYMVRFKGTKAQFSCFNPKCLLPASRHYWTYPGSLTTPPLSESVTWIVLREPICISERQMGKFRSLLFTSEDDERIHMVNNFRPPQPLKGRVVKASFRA
Excerpt: as §3

HeLa (cervix) = assay: antiproliferative assay (NCI protocol), HeLa; assay type: cell-based, human; details: antiproliferative activity
Procedure: as §1, §2

HBL-100 (breast) = assay: antiproliferative assay (NCI protocol), HBL-100; assay type: cell-based, human; details: antiproliferative activity
Procedure: as §1, §2

human CA II [7] = target: T1, human CA II; assay: stopped-flow CO2 hydrase assay, CA II
Excerpt: as §3

[8] = test system: panel of six human solid tumour cell lines; assay: antiproliferative assay, whole panel of tumour cell lines; assay type: cell-based
Procedure: as §1, §2

T2 sequence (P00915 whole entry): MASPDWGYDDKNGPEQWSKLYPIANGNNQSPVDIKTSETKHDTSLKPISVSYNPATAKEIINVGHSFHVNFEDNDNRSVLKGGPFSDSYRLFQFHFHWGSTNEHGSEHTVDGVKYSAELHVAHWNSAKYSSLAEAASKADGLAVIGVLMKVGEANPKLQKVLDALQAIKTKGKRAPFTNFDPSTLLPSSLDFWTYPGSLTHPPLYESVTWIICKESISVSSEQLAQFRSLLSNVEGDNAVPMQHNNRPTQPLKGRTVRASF

SMILES	GI50 ([3]; Homo sapiens, SW1573) [µM]	Ki (human CA XII) [µM]	Selectivity ratio I/XII (human CA XII)	Selectivity ratio II/XII (human CA XII)	GI50 ([4]; Homo sapiens, A549) [µM]	Ki (human CA IV) [µM]	GI50 (T-47D (breast); Homo sapiens, T47D) [µM]	Ki (human CA IX) [µM]	Selectivity ratio I/IX (human CA IX)	Selectivity ratio II/IX (human CA IX)	Ki (human CA I [5]) [µM]	GI50 (WiDr (colon); Homo sapiens, WiDr) [µM]	GI50 ([6]; Fibroblast) [µM]	Ki (human CA VII) [µM]	GI50 (HeLa (cervix); Homo sapiens, HeLa) [µM]	GI50 (HBL-100 (breast); Homo sapiens, HBL-100) [µM]	Ki (human CA II [7]) [µM]	other results
Cc1cc(=O)oc2cc(O)ccc12 [Compound 3a, 4-methylumbelliferone]																		Ki (human CA II [1]): > 100 µM; Ki (human CA I [2]): > 100 µM
Cc1cc(=O)oc2cc(OCCCCCNc3nc4cc(-c5ccccc5)ccc4o3)ccc12 [Compound 8i]	60 ± 4	0.0571	>175.1	>175.1	41 ± 20	6.27	> 100	0.0332	>301.2	>301.2	> 10	78 ± 38	25 ± 6	> 10	28 ± 13	30 ± 9	> 10	activity against the non-tumour cell line (in words) [6]: moderate antiproliferative agent
[NH2][Pt]([NH2])([Cl])[Cl] [CDDP, cisplatin, reference compound]																		GI50 [3]: 2.7 ± 0.4 µM; GI50 [4]: 4.9 ± 0.2 µM; GI50 (T-47D (breast)): 17 ± 3 µM; GI50 (WiDr (colon)): 26 ± 4 µM; GI50 [6]: 14 ± 2 µM; GI50 (HeLa (cervix)): 1.8 ± 0.5 µM; GI50 (HBL-100 (breast)): 1.9 ± 0.2 µM
O=c1cc(-c2ccccc2)c2ccc(OCCCCCCNc3nc4ccccc4o3)cc2o1 [Compound 8f]	> 100	0.316	>31.6	>31.6	> 100	0.808	> 100	0.271	>36.9	>36.9	> 10	> 100	> 100	> 10	> 100	> 100	> 10	impairment of inhibition of CA XII compared to Me-counterpart 8c (human CA XII; versus 8c): 5 fold; impairment of inhibition of CA IX compared to Me-counterpart 8c (human CA IX; versus 8c): 3 fold; antiproliferative activity against all cell lines (in words) [8]: completely abolished activity against all cell lines
Cc1cc(=O)oc2cc(OCCCCCCNc3nc4ccccc4o3)ccc12 [Compound 8c]	> 100	0.0651	>153.6	>153.6	8.3 ± 1.6	0.984	> 100	0.0823	>121.5	>121.5	> 10	> 100	> 100	> 10	96 ± 7	> 100	> 10	
Cc1c(Cl)c(=O)oc2cc(OCCCCCCNc3nc4ccccc4o3)ccc12 [Compound 8e]	3.1 ± 0.5	0.0757	>132.1	>132.1	2.6 ± 0.5	0.82	4.3 ± 0.1	0.0743	>134.6	>134.6	> 10	4.2 ± 0.5	> 100	> 10	3.9 ± 0.7	5.1 ± 1.4	> 10	GI50 ([8]; Homo sapiens, range over the tumour cell lines, read-out: GI50 for all cell lines): 2.6 to 5.1 µM; increased activity compared to 5-FU ([8]; multidrug-resistant cell lines): up to 11.7 fold; increased activity compared to CDDP ([8]; multidrug-resistant cell lines): up to 6.2 fold
Cc1c(C)c2ccc(OCCCCCCNc3nc4ccccc4o3)cc2oc1=O [Compound 8d]	20 ± 3	0.0698	>143.3	>143.3	15 ± 3	0.802	> 100	0.0645	>155.0	>155.0	> 10	> 100	> 50	> 10	29 ± 8	53 ± 14	> 10	activity against the non-tumour cell line (in words) [6]: weak activity
O=c1[nH]cc(F)c(=O)[nH]1 [5-Fluorouracil, reference compound]	3.3 ± 1.2				2.2 ± 0.3		43 ± 16					49 ± 7	5.5 ± 0.5		16 ± 5	4.4 ± 0.7		
Cc1ccc2oc(NCCCCCOc3ccc4c(C)cc(=O)oc4c3)nc2c1 [Compound 8g]	> 100	0.0673	>148.6	>148.6	> 100	0.762	> 100	0.417	>24.0	>24.0	> 10	> 100	> 100	> 10	> 100	> 100	> 10	decreased activity against CA IX compared to non-substituted counterpart 8b (human CA IX): 6 fold; antiproliferative activity against all cell lines (in words) [8]: completely abolished activity against all cell lines
Cc1cc(=O)oc2cc(OCCCCCNc3nc4cc(Br)ccc4o3)ccc12 [Compound 8h]	14 ± 1	0.0807	>123.9	>123.9	6.5 ± 3.1	0.792	32 ± 7	0.757	>13.2	>13.2	> 10	29 ± 1	> 100	> 10	16 ± 1	23 ± 5	> 10	decreased activity against CA IX compared to non-substituted counterpart 8b (human CA IX): 11 fold
Cc1cc(=O)oc2cc(OCCCCCNc3nc4cc(S(N)(=O)=O)ccc4o3)ccc12 [Compound 8j]	29 ± 8	0.0506	15.9	10.2	13 ± 3	3.47	34 ± 8	0.0907	8.9	5.7	0.806	29 ± 9	> 100	0.381	21 ± 7	27 ± 8	0.516	
Cc1cc(=O)oc2cc(OCCCNc3nc4ccccc4o3)ccc12 [Compound 8a]	29 ± 4	0.0844	>118.5	>118.5	32 ± 1	0.839	33 ± 3	0.0742	>134.8	>134.8	> 10	37 ± 4	> 50	> 10	30 ± 2	41 ± 5	> 10	activity against the non-tumour cell line (in words) [6]: weak activity
Cc1cc(=O)oc2cc(OCCCCCNc3nc4ccccc4o3)ccc12 [Compound 8b]	33 ± 4	0.0845	>118.3	>118.3	15 ± 6	0.95	38 ± 10	0.0707	>141.4	>141.4	> 10	33 ± 1	> 100	> 10	39 ± 1	49 ± 6	> 10	

From article PMC8667885, “2-Aminobenzoxazole-appended coumarins as potent and selective inhibitors of tumour-associated carbonic anhydrases” (Journal of Enzyme Inhibition and Medicinal Chemistry, 2021)
